Test results as given in patent publication US9552457B2, “Reprogramming effector protein interactions to correct epigenetic defects in cancer” (BRITISH COLUMBIA CANCER AGENCY BRANCH, priority 2012, dated 2017).
Like-named read-outs stand apart in the source and are kept apart here.

Tests used:
[1] = biological target: T1, GST-BPTF dual PHD finger-bromodomain (Homo sapiens, UniProt Q12830); test: BPTF pull down assay with H3K4 methylated peptides; type: binding; details: 68 μM drug
T1 construct: The dual PHD finger-bromodomain (residues 2583-2751) from the human BPTF (gi:31322942); made in house; host or cells: E. coli BL21-AI
Description: Certain embodiments of the invention relate to the use of a “pull down” assay to characterize the binding of candidate compounds to the target mark. A general schema for such an assay as it applies to BPTF is shown in FIG. 4 and described in Example 5. Briefly, the GST-labeled PHD finger-bromodomain of BPTF was incubated with the candidate compound and H3K4me0, me1, me2 or me3 peptides that were coupled to streptavidin-labeled dynabeads through a biotin molecule on the peptide. After washing with an appropriate buffer, bound protein was eluted from the beads and assessed by SDS-PAGE and optionally Western blot. One skilled in the art will appreciate that this assay can be readily adapted to other readers/erasers and histone marks.
The full-length human BPTF construct was obtained from C. David Allis of the Laboratory of Chromatin Biology, Rockefeller University (Li et al., 2006, ibid). The dual PHD finger-bromodomain (residues 2583-2751) from the human BPTF (gi:31322942) was cloned into a pDEST15 vector using Gateway® cloning technology allowing for an N-terminal GST tag (Life Technologies). Over-expression of the GST-BPTF dual PHD finger-bromodomain was induced in BL21-AI™ chemically competent E. coli cells using LB medium supplemented with 1 mM IPTG and 0.2% L-arabinose for 2 hours in a 37° C. shaking incubator. GST-BPTF dual PHD finger-bromodomain was purified using Glutathione Sepharose 4B media (GE Healthcare Life Sciences) and dialyzed against PBS (Life Technologies) overnight.
The peptide pull-down experiment was performed essentially as previously described (Ruthenburg et al., 2011, Cell, 145(5):692-706.). Fifty microliters of M-280 streptavidin-coupled Dynabeads® (Life Technologies) were dispensed into 1.5 mL microtubes and washed 3×50 μL in PBS. The beads were then incubated with C-terminally biotinylated H3K4me0, me1, me2 or me3 peptides 21 amino acids long (Anaspec) rotating for 1 hour at 4° C. under saturating conditions. The beads were washed 3×100 μL in HBS-TD (10 mM Na-HEPES, 150 mM NaCl, 0.005% Tween-20, 2 mM DTT) and incubated with 6.8 μM of GST-BPTF along with either 68 μM of drug in a 1:100 DMSO to PBS solution or carrier alone rotating for 3 hours at 4° C. The beads were then washed 10×200 μL in HBS-TD. The protein was eluted using 2×LDS sample buffer (Life Technologies) and 1× reducing agent (Life Technologies) at 85° C. for 10 minutes. Samples were subjected to SDS-PAGE and bands were visualized using either SimplyBlue stain (Life Technologies) or GST antibody (Santa Cruz). Quantification of bands was made using ImageJ software.

[2] = system: SU-DHL-9 (MLL2 homozygous indel mutant) cell line; test: alamarBlue cell proliferation assay, SU-DHL-9 cell line; type: cell-based, human; details: for activity at 10 µM: Homo sapiens, 48 hours, normalized to carrier-treated control, SU-DHL-9, read-out: % Cell Proliferation; for activity against the MLL2 double LoF mutant cell line: SU-DHL-9, in words; for activity as worded in SAR analysis (selective toxicity against SU-DHL-9): in words, restates Tables 3 and 4
Description: Cell line DOHH2 was obtained from DSMZ. Pfeiffer was obtained from ATCC. SU-DHL-9 was obtained from Martin Dyer (University of Leicester, UK).
Compounds were initially solubilized in DMSO at a concentration of 10 mM. […] Ninety microliters of cells maintained at a concentration of 4×10^5 cells/mL were dispensed into wells of a MICROTEST™ 96-well Assay Plate, Optilux™ (BD). Ten microliters of the 100 μM compound solution were then added to the cells resulting in a final compound concentration of 10 μM. Each compound was tested in triplicate. […] Compounds were incubated with the cells in a 37° C. incubator with 5% CO2, humidified atmosphere for 48 hours before being subjected to the alamarBlue® cell proliferation assay (Life Technologies). Raw fluorescent units were corrected for background noise and normalized to the carrier-treated control.

[3] = system: SU-DHL-9 (MLL2 mutated) tumours; test: SU-DHL-9 mouse xenograft model; type: in vivo; details: eight days, day nine
Description: NOD/SCID/γ^null (NSG) mice were bred at the local BCCRC animal facility. To establish primary tumors, male NSG mice were inoculated with 1×10^7 cells of the human diffuse histiocytic lymphoma cell line SU-DHL-9 in 50 μl PBS in the flank area. After development of s.c. tumors, mice were sacrificed and small fragments of the tumors (˜20 mg) were transplanted s.c. into the right flank of anesthetized six-ten weeks old male NSG recipient mice using 13 G trocar needles. Treatment was initiated once the tumors became palpable. Tumourlength and width was determined by caliper and tumourvolume was calculated by the modified ellipsoidal formula as […].
Compounds were diluted in a mixture of 50% DMSO and 50% polyethylene glycol 200. Eight tumor-bearing mice per group were administered by intraperitoneal injections daily over a period of eight days with either compounds at doses of 1 mg/kg or 4 mg/kg (Compound 3; NSC 127763), 4 mg or 12 mg/kg (Compound 2; NSC 304107) or the vehicle for control. Body weight was recorded every two days, tumoursize every four days and mice were monitored for any other additional adverse effects. Experimental animals were sacrificed at day nine, tumourvolumes were determined and the significance of differences was determined by Student's t-test after normalizing to the initial tumourvolume.

[4] = system: DoHH-2, OCI-LY3, WSU-DLCL2 (all wild-type for MLL2); test: alamarBlue cell proliferation assay, MLL2 wild-type cell lines; type: cell-based; details: for activity against wild-type cells: in words
Description: Diffuse large B-cell lymphoma cell lines were maintained in RPMI medium 1640 (Life Technologies) supplemented with 10% (v/v) fetal bovine serum (Life Technologies) and 1% penicillin/streptomycin (Life Technologies) in a 37° C. incubator with 5% CO2, humidified atmosphere. Cell line DOHH2 was obtained from DSMZ. Pfeiffer was obtained from ATCC. SU-DHL-9 was obtained from Martin Dyer (University of Leicester, UK).
Compounds were initially solubilized in DMSO at a concentration of 10 mM. This compound solution was further diluted 1:100 in RPMI medium 1640 to a final concentration of 100 μM. Ninety microliters of cells maintained at a concentration of 4×10^5 cells/mL were dispensed into wells of a MICROTEST™ 96-well Assay Plate, Optilux™ (BD). Ten microliters of the 100 μM compound solution were then added to the cells resulting in a final compound concentration of 10 μM. Each compound was tested in triplicate. Ten microliters of a 1:100 DMSO to RPMI medium 1640 solution were also added to 90 μL of cells as a carrier control. Furthermore, each plate included wells containing only RPMI medium 1640 to serve as a background noise control as well as cells that were completely untreated. Compounds were incubated with the cells in a 37° C. incubator with 5% CO2, humidified atmosphere for 48 hours before being subjected to the alamarBlue® cell proliferation assay (Life Technologies). Raw fluorescent units were corrected for background noise and normalized to the carrier-treated control.
The activity of Compound 3 in vitro was investigated further using the cell lines DoHH-2, OCI-LY3, WSU-DLCL2 (all wild-type for MLL2) and SU-DHL9. In addition, the dose response for Compound 2 was investigated in cell lines mutant for MLL2 or both MLL2 and EZH2. The dose response for Compound 3 was investigated in a MLL2 mutant cell line. Methods were as described for Example 3. Cell-line WSU-DLCL2 was obtained from DSMZ and OCI-Ly lines 3 was obtained from Louis Staudt (US National Institutes of Health).

[5] = system: WSU-DLCL2 Cells (EZH2 mutation Y641F); test: Cell viability of lymphoma cell lines, WSU-DLCL2; type: cell-based, human; details: WSU-DLCL2, in words
Description: (§1) Compound 50 was tested for its effect on the viability of three lymphoma cell lines in vitro using standard methods. The cell lines tested were: DoHH-2 (wildtype for EZH2, MEF2B and MLL2); WSU-DLCL2 (EZH2 mutation Y641F (wildtype for MEF2B and MLL2)) and DB (EZH2 mutation Y641N, the MEF2B mutation D83V and three mutations in MLL2 (two of which lead to a truncated protein after residue Q2736 and the third allele has a 1 base pair deletion at residue P480)).
(§2) Compound 51 (NSC2540) was tested for its effect on the viability of four lymphoma cell lines in vitro using standard methods. The cell lines tested were DoHH-2, WSU-DLCL2, DB and SU-DHL-9 (EZH2 wildtype, MEF2B wildtype, MLL2 indel).

MDA-MB-231 = test: Viability of breast cancer cell lines, MDA-MB-231; type: cell-based; details: MDA-MB-231, in words
Description: (§3) Compounds 50 and 51 were tested for their effect on the viability of four breast cancer cell lines in vitro using standard methods. The cell lines tested were: MCF-7, MDA-MB-231, HCC202 (CRL-2316) and HCC1500 (CRL-2329).

[6] = system: SU-DHL-9 (EZH2 wildtype, MEF2B wildtype, MLL2 indel); test: Cell viability of lymphoma cell lines, SU-DHL-9 (CBX2 compound); type: cell-based, human; details: SU-DHL-9, in words
Description: as §2

HCC202 (CRL-2316) = test: Viability of breast cancer cell lines, HCC202; type: cell-based; details: in words
Description: as §3

[7] = system: WSU-DLCL2 human diffuse large cell lymphoma tumours; test: WSU-DLCL2 mouse xenograft model; type: in vivo; details: evaluation at day 12
Description: WSU-DLCL2 tumourfragments were transplanted subcutaneously into the flank of male NSG mice. Mice were 9.0-9.3 weeks at transplantation and treatment was started when the mice were between 12.9 and 13.1 weeks. 8 mice were used per group and treatment was daily for ten days with evaluation at day 12. Tumoursize determined by caliper every four days, tumourvolume calculated by length×width^2/2.
The groups of mice were treated with vehicle (control), 1 mg/kg Compound 50 or 4 mg/kg Compound 50 by intraperitoneal injection. Vehicle was 50% DMSO/50% PEG-400.
WSU-DLCL2 tumourfragments were transplanted subcutaneously into the flank of male NSG mice. Mice were 5.3-9.4 weeks at transplantation and treatment was started when the mice were between 8.6 and 12.7 weeks. 8 mice were used in the control group and 6 mice were used in the Compound 51 treated group. Treatment was daily for ten days with evaluation at day 12. Tumoursize determined by caliper every four days, tumourvolume calculated by length×width^2/2.
The groups of mice were treated with vehicle (control) or Compound 51 by intraperitoneal injection at 4 mg/kg for the first 5 days and 2 mg/kg for the subsequent 5 days. Vehicle was 50% DMSO/50% PEG-400.

[8] = system: DoHH2 Cells (wildtype for EZH2, MEF2B and MLL2); test: Cell viability of lymphoma cell lines, DoHH-2; type: cell-based; details: DoHH-2, in words
Description: as §1, §2

HCC1500 (CRL-2329) = test: Viability of breast cancer cell lines, HCC1500; type: cell-based; details: in words
Description: as §3

[9] = system: DB (EZH2 mutation Y641N, MEF2B mutation D83V, three mutations in MLL2); test: Cell viability of lymphoma cell lines, DB; type: cell-based; details: in words
Description: as §1

[10] = 6.8 μM GST-BPTF, GST antibody staining

O=C1c2ccccc2C(=O)c2c(NC(=O)C(Cl)CCl)cccc21 (stereo not shown) [Compound 3, 2,3-didhloro-N-(9,10-dioxo-9,10-dihydro-anthracen-1-yl)-propionamide]
binding of H3K4me1 with BPTF [1, 10]: able to stabilize the binding
binding of H3K4me3 with BPTF [1, 10]: diminished binding
Densitometry value, H3K4me3 + compound ([1]; without compound 2545): 4227
Densitometry value, H3K4me1 + compound ([1]; without compound 9350): 13335
activity at 10 µM ([2]; Table 4, scaffold B): < 10%
activity against the MLL2 double LoF mutant cell line [2]: active
activity as worded in SAR analysis (selective toxicity against SU-DHL-9) [2]: active
median tumour growth ([3]; 4 mg/kg intraperitoneal daily, untreated control 563%): 362%
effect on cells where MLL2 was wild-type ([4]; DoHH-2, OCI-LY3, WSU-DLCL2): no obvious effect
activity against wild-type cells [4]: inactive

CN(C)CCC(=O)c1ccc(Cl)cc1Cl [Compound 2, 1-(2,4-dichloro-phenyl)-3-dimethylamino-propan-1one]
binding of H3K4me2 with BPTF [1, 10]: able to stabilize the binding
binding of H3K4me3 with BPTF [1, 10]: diminished binding
activity at 10 µM ([2]; Table 3, scaffold A): < 10%
activity against the MLL2 double LoF mutant cell line [2]: active
activity as worded in SAR analysis (selective toxicity against SU-DHL-9) [2]: active
median tumour growth ([3]; 12 mg/kg intraperitoneal daily, untreated control 1755%): 1305%
activity against wild-type cells [4]: inactive

OC(c1cc(-c2ccc(Cl)c(Cl)c2)nc2ccccc12)C1CCCCN1 (stereo not shown) [Compound 51]
effect on viability [5]: able to decrease viability
effect on viability (MDA-MB-231): able to decrease viability
effect on viability [6]: able to decrease viability
effect on viability (HCC202 (CRL-2316)): able to decrease viability
effect on tumour volume ([7]; intraperitoneal 4 mg/kg for 5 days then 2 mg/kg for 5 days, p=0.0125): able to significantly reduce tumourvolume
effect on viability [8]: able to decrease viability
effect on viability (HCC1500 (CRL-2329)): able to decrease viability

O=C(CBr)c1cc(-c2ccccc2)nc2c(Cl)cc(Cl)cc12 [Compound 50]
effect on viability [5]: highest activity
effect on viability [9]: reduced the viability
effect on tumour volume ([7]; 1 mg/kg or 4 mg/kg intraperitoneal daily for ten days, p=0.0047 control vs 4 mg/kg): able to reduce tumour volume
effect on viability [8]: reduced the viability
